What all share (assay type): cell-based, human
Experiment [1] relates to hESC. In words: Flow cytometry analysis of differentiation markers at day 4 of DE differentiation. The note with it: for differentiation to DE: supplementation of Activin A, compared with Activin A and DMSO. On the procedure: Definitive endoderm formation: hESC were passaged onto the appropriate culture flasks or plates at 0.6×10^5 cells/cm^2 and cultured for 2 days. To initiate definitive endoderm differentiation hESC were washed once with PBS and cultured in RMPI 1640 medium (Life Technologies) supplemented with 100 ng/ml of Activin A (R&D Systems) and 0.25 to 2% of DMSO (Sigma). FBS (0.2%) was added after first 24 hours and cells were cultured for four days with media changed daily.
Cells cultured in 6 well plates were washed twice in PBS and treated with 0.25% trypsin-EDTA (Life Technologies) to obtain single cell suspensions. Trypsin was inactivated after 5 min of incubation by adding medium containing 10% FBS. Cells were counted, centrifuged at 300 g for 5 min, washed twice with PBS and subsequently fixed in 2% paraformaldehyde (USB). Following 15 min incubation at room temperature cells were washed in PBS and perm/wash buffer (PWB) (BD) and subsequently resuspended at 4×10^6 cells/ml in perm/wash buffer supplemented with 0.1 mg/ml human IgG (Sigma) and 10% serum from the species of secondary antibody (Life Technologies). Cells were incubated for 30 min at 4° C. and then 50 μl aliquots (2×10^5 cells) were transferred to individual 5 ml polystyrene round-bottom FACS assay tubes. For double staining of cells with OCT4 and SOX17, cells were stained in perm/wash buffer first with mouse anti-OCT4 (Cell Signalling) and incubated for 1 h at room temperature, following by two washes with PBS and incubation in perm/wash buffer with goat anti-mouse-FITC (Molecular Probes) and goat anti-SOX17-APC (R&D Systems). Following 1 h incubation at 4° C., samples were washed twice and resuspended in 0.2% FBS in PBS in a final volume of […]. Separate staining for OCT4 and SOX17 was performed analogously. Cells were analysed on a BD FACSCalibur flow cytometer and data analysed using CellQuest software.
For orientation: Flow cytometry measures light scatter and fluorescence of single cells or particles in a stream.

The test system of experiment [2] is hESC. In words: qRT-PCR analysis of differentiation markers at day 4 of DE differentiation. How it is done: Definitive endoderm formation: hESC were passaged onto the appropriate culture flasks or plates at 0.6×10^5 cells/cm^2 and cultured for 2 days. To initiate definitive endoderm differentiation hESC were washed once with PBS and cultured in RMPI 1640 medium (Life Technologies) supplemented with 100 ng/ml of Activin A (R&D Systems) and 0.25 to 2% of DMSO (Sigma). FBS (0.2%) was added after first 24 hours and cells were cultured for four days with media changed daily. Isolation of total cellular RNA was performed using an illustra RNAspin Mini RNA Isolation Kit (GE Healthcare) and the concentration of RNA in each sample measured on a NanoDrop 1000 spectrophotometer. 1 μg of extracted total RNA was reverse transcribed using High Capacity cDNA Reverse Transcription Kit (Applied Biosystems). TaqMan quantitative PCR was performed using unlabelled PCR primers and FAM-based probes (Applied Biosystems by Life Technologies) in conjunction with TaqMan Universal PCR Master Mix, No AmpErase UNG (Applied Biosystems). Concentrated TaqMan PCR Master Mix (2×) was combined with water and cDNA. The final concentration of Master Mix was achieved by addition of appropriate concentrations of primers/FAM probes diluted in water. Reactions were carried out on a 7900HT Fast Real-Time PCR System (Applied Biosystems). qRT-PCR cycling conditions were: 95° C. for 10 min, and subsequently 45 cycles of 95° C. for 10 sec and 60° C. for 1 min. Each sample was run in triplicate with GAPDH as a reference gene. Analysis of results was performed in SDS Software for the 7900HT Fast Real-Time PCR System. Relative quantification was calculated against GAPDH and B-Actin housekeeping genes and standard derivations report n=3 replicates from each sample.
Background: Real-time PCR tracks product formation cycle by cycle.

Experiment [3] concerns hESC. In words: Immunofluorescence analysis of differentiation markers at day 4 of DE differentiation. On the procedure:
Definitive endoderm formation: hESC were passaged onto the appropriate culture flasks or plates at 0.6×10^5 cells/cm^2 and cultured for 2 days. To initiate definitive endoderm differentiation hESC were washed once with PBS and cultured in RMPI 1640 medium (Life Technologies) supplemented with 100 ng/ml of Activin A (R&D Systems) and 0.25 to 2% of DMSO (Sigma). FBS (0.2%) was added after first 24 hours and cells were cultured for four days with media changed daily. For detection of stage-specific markers, cells were grown and differentiated in 96 well plates (uClear black plate with clear flat bottom, Greiner). Cells were rinsed twice with PBS and fixed in 4% paraformaldehyde (USB) for 15 min at room temperature and then washed twice with PBS and blocked for 30 min at RT in 1% BSA (Life Technologies) and 0.1 mg/ml human IgG (Sigma) in perm/wash buffer (BD). Cells were subsequently stained for 2 hours at RT or overnight at 4° C. with primary rabbit anti-OCT4 (Cell Signaling), mouse and anti-SOX17 (Abcam) antibodies diluted in perm/wash buffer. Cells were subsequently washed several times with perm/wash buffer and incubated at 4° C. in the dark with goat anti-mouse-FITC and chicken anti-rabbit-Cy5 (Molecular probes) diluted 1:400 in perm/wash buffer. […]

Experiment [4] concerns hESC. In words: Differentiation of hESC-derived DE towards hepatic like cells (AFP day 12, ALB day 28). The note with it: day 28 (hepatic like cells), with increasing concentrations of DMSO during DE stage. How it is done:
Definitive endoderm formation: hESC were passaged onto the appropriate culture flasks or plates at 0.6×10^5 cells/cm^2 and cultured for 2 days. To initiate definitive endoderm differentiation hESC were washed once with PBS and cultured in RMPI 1640 medium (Life Technologies) supplemented with 100 ng/ml of Activin A (R&D Systems) and 0.25 to 2% of DMSO (Sigma). FBS (0.2%) was added after first 24 hours and cells were cultured for four days with media changed daily. Hepatic specification: hESC-derived definitive endoderm cells were washed once with PBS and cultured in KO-DMEM medium and 2% KOSR supplemented with 1 mM L-glutamine, NEAA (all from Life Technologies), B-Mercaptoethanol (Sigma), 30 ng/ml BMP2, 10 ng/ml FGF4, 0.5% DMSO for 5 days with BMP4. […] Isolation of total cellular RNA was performed using an illustra RNAspin Mini RNA Isolation Kit (GE Healthcare) and the concentration of RNA in each sample measured on a NanoDrop 1000 spectrophotometer. […] TaqMan quantitative PCR was performed using unlabelled PCR primers and FAM-based probes (Applied Biosystems by Life Technologies) in conjunction with TaqMan Universal PCR Master Mix, No AmpErase UNG (Applied Biosystems). […] Relative quantification was calculated against GAPDH and B-Actin housekeeping genes and standard derivations report n=3 replicates from each sample.

[5] abbreviates: 0.5% and 1% DMSO added to Activin A containing medium, day 4, relative to control cells treated with Activin A alone.
Where [6] appears, read: increasing concentrations of DMSO with Activin A, day 4.

The results in this text go back to US9404086B2, “Method for cell differentiation” (GE HEALTHCARE UK LIMITED, priority 2014, dated 2016).

On to `C[S+](C)[O-]` [DMSO, dimethyl sulfoxide], for which, in the experiment with hESC [1] (setting [5]), the OCT4 expressing cells entry is listed as “decrease” and the SOX17 expressing cells result is on record as “increase”. In addition, the OCT4 expression result with hESC [1] (increasing concentrations of DMSO with Activin A, day 4, flow cytometry confirmation) is recorded as “down regulation”. The “expression of pluripotency genes” value with hESC [2] (0.5% to 0.6% DMSO added to Activin A-based medium during definitive endoderm derivation) was “rapid down regulation”. For the same molecule, in the experiment on hESC [2] (DMSO method day 4 (KCGE D4) versus Hay D5), the “DE differentiation compared with established prior art method (Hay et al)” value was “significant improvement”. For the same molecule, in the experiment with hESC [2] (setting [6]), the CXCR4 expression entry was “up regulation”, the GATA4 expression result is listed as “up regulation”, the OCT4 expression entry is reported as “significant dose dependent decrease” and the SOX17 expression entry is “up regulation”. Besides, in the experiment on hESC [3] (increasing concentrations of DMSO from 0% to 2% with Activin A), the OCT4 expression entry is “down regulation”. Further, in the experiment on hESC [3] (with Activin A), the “DMSO concentration at which SOX 17 staining was maximum” value is on record as 0.6%. For the same molecule, the ALB expression entry with hESC [4] is reported as “increased”.
For “FGF2: growth factor reported to aid in DE differentiation, used in conjunction with Activin A”, in the experiment on hESC [1], the “differentiation to DE” value is “inferior”.

B1: Wnt3a: growth factor reported to aid in DE differentiation, used in conjunction with Activin A (protein, UniProt P56704 19-352, looked up)
Protein Wnt-3a: SYPIWWSLAVGPQYSSLGSQPILCASIPGLVPKQLRFCRNYVEIMPSVAEGIKIGIQECQHQFRGRRWNCTTVHDSLAIFGPVLDKATRESAFVHAIASAGVAFAVTRSCAEGTAAICGCSSRHQGSPGKGWKWGGCSEDIEFGGMVSREFADARENRPDARSAMNRHNNEAGRQAIASHMHLKCKCHGLSGSCEVKTCWWSQPDFRAIGDFLKDKYDSASEMVVEKHRESRGWVETLRPRYTYFKVPTERDLVYYEASPNFCEPNPETGSFGTRDRTCNVSSHGIDGCDLLCCGRGHNARAERRREKCRCVFHWCCYVSCQECTRVYDVHTCK
Turning to B1, in the experiment with hESC [1], the “differentiation to DE” value is listed as “inferior”.
